Assay results published in ChEMBL document CHEMBL4020780, “Evaluation of synthesized coumarin derivatives on aromatase inhibitory activity” (Bioorg Med Chem Lett, 2017).

What was measured:
Aromatase = molecular target: T1, Aromatase (Homo sapiens, UniProt P11511);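 also: tritiated androstenedione turnover by human CYP19 with NADPH over 15 min, measured through liquid scintillation counting, value is the concentration halving enzyme activity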
T1 sequence (P11511 whole entry): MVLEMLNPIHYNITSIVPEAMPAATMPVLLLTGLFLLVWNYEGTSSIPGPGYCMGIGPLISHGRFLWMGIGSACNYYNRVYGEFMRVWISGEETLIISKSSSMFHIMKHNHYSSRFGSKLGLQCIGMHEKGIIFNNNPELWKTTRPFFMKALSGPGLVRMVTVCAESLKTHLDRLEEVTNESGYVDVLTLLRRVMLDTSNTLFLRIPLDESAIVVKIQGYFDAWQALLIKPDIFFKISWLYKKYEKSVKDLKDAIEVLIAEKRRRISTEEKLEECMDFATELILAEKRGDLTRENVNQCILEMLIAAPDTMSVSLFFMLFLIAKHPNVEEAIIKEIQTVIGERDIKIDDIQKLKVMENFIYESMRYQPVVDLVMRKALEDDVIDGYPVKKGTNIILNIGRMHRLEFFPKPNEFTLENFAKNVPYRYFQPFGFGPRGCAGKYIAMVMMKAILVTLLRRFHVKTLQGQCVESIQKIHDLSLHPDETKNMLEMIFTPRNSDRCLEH

CYP19 (aromatase) [1] = molecular target: T2, CYP19 (aromatase) (Homo sapiens, UniProt P11511); experiment: Inhibition of human CYP19 assessed as residual activity at 10 uM using [1beta-3H]-androstenedione as substrate after 15 mins in presence of NADPH by liquid scintillation counter method relative to control; conditions: probe [1beta-3H]-androstenedione, read-out: Activity
T2 sequence (P11511 whole entry): T1 sequence (P11511 whole entry)

CYP19 (aromatase) [2] = molecular target: T2, CYP19 (aromatase); experiment: Inhibition of human CYP19 assessed as residual activity at 0.1 uM using [1beta-3H]-androstenedione as substrate after 15 mins in presence of NADPH by liquid scintillation counter method relative to control; conditions: probe [1beta-3H]-androstenedione, read-out: Activity

IC50 (Aromatase) [µM]	activity at 0.25 h, 10 µM (CYP19 (aromatase) [1]) [%]	activity at 0.25 h, 0.1 µM (CYP19 (aromatase) [2]) [%]	Structure (SMILES)
> 10	86		CCN(CC)c1ccc2ccc(=O)oc2c1
> 10			O=c1ccc2ccc(-c3ccccc3)cc2o1
> 10			COc1ccc(-c2ccc3ccc(=O)oc3c2)cc1
> 10	65		CCN(CC)c1ccc2cc(-c3nc(-c4ccccc4)cs3)c(=O)oc2c1
0.0287	0	30	CCN(CC)c1ccc2cc(-c3cc4ccc(N(CC)CC)cc4oc3=O)c(=O)oc2c1
> 10	22 to 104		CCOC(=O)c1oc(-c2cc3ccc(N(CC)CC)cc3oc2=O)nc1C
1.1	22		CCOC(=O)c1csc(-c2cc3ccc(N(CC)CC)cc3oc2=O)n1
2.6	14	92	O=c1ccc2ccc(-c3ccncc3)cc2o1
3.1	22 to 104		CCN(CC)c1ccc2cc(-c3cnco3)c(=O)oc2c1
> 10	77		COc1ccc2cc(-c3cc4ccc(OC)cc4oc3=O)c(=O)oc2c1
> 10	55		CCN(CC)c1ccc2cc(-c3nc(CC(=O)OC)cs3)c(=O)oc2c1
0.0303	0	25	O=c1ccc2ccc(-c3cccnc3)cc2o1
> 10	96		O=c1ccc2ccc(-c3ccccn3)cc2o1
> 10	22 to 104		CCN(CC)c1ccc2cc(-c3coc(-c4ccccc4)n3)c(=O)oc2c1
1.1	15		CCN(CC)c1ccc2cc(-c3nc(C)cs3)c(=O)oc2c1
> 10	22 to 104		CCN(CC)c1ccc2cc(-c3ncco3)c(=O)oc2c1
> 10	96		COc1ccc2ccc(=O)oc2c1 [HERNIARIN]
